Like-named read-outs stand apart in the source and are kept apart here.
Tests used:
Test in all cases: greenhouse post-emergence herbicidal test
[1] = system: CHEAL; format: in vivo, Chenopodium album
Outline: (§1)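 Once 1 to 15 cm tall, potted seedlings in loamy sand received the active compounds emulsified or suspended in water. After 20 days, damage versus untreated growth was graded on a 0–100 scale, and synergy judged against Colby's additive value E.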

[2] = system: LAMAM; format: in vivo, Lamium amplexicaule; design: key: scale 0 to 100
Experimental: The culture containers used were plastic pots containing medium loamy sand with approximately 4.6% of humus and 69.9% sand as substrate. The seeds of the test plants were sown separately for each species.
For the post-emergence treatment, the test plants were grown to a plant height of from 1 to 15 cm, depending on the plant habit, and only then treated with the active compounds which had been suspended or emulsified in water. To this end, the test plants were either sown directly, and grown in the same containers, or they were first grown separately as seedlings and transplanted into the test containers a few days prior to treatment.
Depending on the species, the plants were kept at 10-25° C. and 20-35° C., respectively.
The test period extended over 1 to 3 weeks. During this time, the plants were tended and their response to the individual treatments was evaluated 20 days after treatment except mentioned otherwise.
Evaluation was carried out using a scale from 0 to 100. 100 means no emergence of the plants, or complete destruction of at least the above-ground parts, and 0 means no damage or normal course of growth.
The respective stated components A and B, and, if appropriate, C, were formulated as a 10% by weight strength emulsion concentrate and, with addition of the amount of solvent system, introduced into the spray liquor used for applying the active compound. In the examples, the solvent used was water.
In the examples below, using the method of S. R. Colby (1967) “Calculating synergistic and antagonistic responses of herbicide combinations”, Weeds 15, p. 22 ff., the value E, which is expected if the activity of the individual active compounds is only additive, was calculated. E=X+Y−(X·Y/100)

[3] = system: GERDI; format: in vivo, Geranium dissectum; design: key to herbicidal activity against GERDI found: rating on a scale from 0 to 100; details: post emergence
Outline: as §1

[4] = a.i. g/ha: I.1 15.6, B.67 125, 20 days after treatment
[5] = a.i. g/ha: I.1 31.25, B.67 125, 20 days after treatment

O=C(O)c1cc(C2CC2)nc2onc(C3CC3)c12 [I.1]
herbicidal activity against CHEAL found ([1]; a.i. g/ha: I.1 6.9, B.67 62.5, 20 days after treatment): 0%
herbicidal activity against CHEAL found ([1]; a.i. g/ha: I.1 15.6, B.190 62.5, 20 days after treatment): 70%
herbicidal activity against CHEAL found [1, 4]: 0%
herbicidal activity against CHEAL found ([1]; a.i. g/ha: I.1 20.8, B.192 62.5, 20 days after treatment): 85%
herbicidal activity against CHEAL found ([1]; a.i. g/ha: I.1 20.8, B.67 62.5, 20 days after treatment): 85%
herbicidal activity against CHEAL found [1, 5]: 65%
herbicidal activity against CHEAL found ([1]; a.i. g/ha: I.1 31.25, B.69 25, 20 days after treatment): 30%
herbicidal activity against CHEAL found ([1]; a.i. g/ha: I.1 31.25, B.76 225, 20 days after treatment): 30%
herbicidal activity against CHEAL found ([1]; a.i. g/ha: I.1 62.5, B.69 25, 20 days after treatment): 60%
herbicidal activity against CHEAL found ([1]; a.i. g/ha: I.1 62.5, B.76 225, 20 days after treatment): 60%
herbicidal activity against CHEAL found ([1]; a.i. g/ha: I.1 62.5, B.82 31.25, 20 days after treatment): 60%
herbicidal activity against LAMAM, found ([2]; 31.25 g/ha a.i.): 70
herbicidal activity against LAMAM, found ([2]; application rate a.i.: I.1 31.25 g/ha, B.139 (pyroxasulfone) 25 g/ha, alone or as mixture (composition 1.139)): 80
herbicidal activity against LALAM, found ([2]; application rate a.i.: I.1 31.25 g/ha, B.87 (carfentrazone-ethyl) 1.75 g/ha, alone or as mixture (composition 1.87)): 70
herbicidal activity against LAMAM, found ([2]; application rate a.i.: I.1 62.5 g/ha, B.87 (carfentrazone-ethyl) 1.75 g/ha, alone or as mixture (composition 1.87)): 85
pest or weed control at 62.5 g/ha ([3]; Geranium dissectum, post-emergence, 480 h, 62.5 g/ha a.i., read-out: herbicidal activity against GERDI found): 90%
pest or weed control at 31.25 g/ha ([3]; Geranium dissectum, post-emergence, 480 h, I.1 31.25 g/ha a.i., read-out: herbicidal activity against GERDI found): 50%
pest or weed control at 62.5 g/ha ([3]; Geranium dissectum, post-emergence, 480 h, I.1 62.5 g/ha a.i., read-out: herbicidal activity against GERDI found): 55%
pest or weed control at 15.625 g/ha ([3]; Geranium dissectum, post-emergence, 480 h, single active, 15.625 g/ha a.i., read-out: herbicidal activity against GERDI found): 0%
pest or weed control at 31.25 g/ha ([3]; Geranium dissectum, post-emergence, 480 h, single active, 31.25 g/ha a.i., read-out: herbicidal activity against GERDI found): 10%
pest or weed control at 62.5 g/ha ([3]; Geranium dissectum, post-emergence, 480 h, single active, 62.5 g/ha a.i., read-out: herbicidal activity against GERDI found): 60%
pest or weed control at 125 g/ha ([3]; Geranium dissectum, post-emergence, 480 h, single active, 125 g/ha a.i., read-out: herbicidal activity against GERDI found): 70%
herbicidal activity against GERDI found ([3]; I.1 15.6 g/ha, B.103 7.5 g/ha a.i.): 0
herbicidal activity against GERDI found ([3]; I.1 15.62 g/ha, B.89 25 g/ha a.i.): 0
herbicidal activity against GERDI found ([3]; I.1 31.25 g/ha, B.103 7.5 g/ha a.i.): 30
herbicidal activity against GERDI found ([3]; I.1 31.25 g/ha, B.103 15 g/ha a.i.): 30
herbicidal activity against GERDI found ([3]; I.1 62.5 g/ha, B.103 7.5 g/ha a.i.): 60
herbicidal activity against GERDI found ([3]; I.1 62.5 g/ha, B.103 15 g/ha a.i.): 60
herbicidal activity against GERDI found ([3]; I.1 62.5 g/ha, B.167 125 g/ha a.i.): 60
herbicidal activity against GERDI found ([3]; I.1 62.5 g/ha, B.88 1 g/ha a.i.): 0
herbicidal activity against GERDI found ([3]; I.1 62.5 g/ha, B.88 2 g/ha a.i.): 0
herbicidal activity against GERDI found ([3]; I.1 62.5 g/ha, B.89 12.5 g/ha a.i.): 0
herbicidal activity against GERDI found ([3]; I.1 62.5 g/ha, B.89 25 g/ha a.i.): 0
herbicidal activity against GERDI found ([3]; I.1 62.5 g/ha, B.95 1 g/ha a.i.): 0
herbicidal activity against GERDI found ([3]; I.1 62.5 g/ha, B.95 2 g/ha a.i.): 0
herbicidal activity against GERDI found ([3]; a.i. g/ha: I.1 7.8, B.67 125, 20 days after treatment): 0%
herbicidal activity against GERDI found [3, 4]: 0%
herbicidal activity against GERDI found ([3]; a.i. g/ha: I.1 31.25, B.190 62.5, 20 days after treatment): 30%
herbicidal activity against GERDI found [3, 5]: 30%
herbicidal activity against GERDI found ([3]; a.i. g/ha: I.1 31.25, B.67 125, 20 days after treatment, sub-table r36-r43): 30%
herbicidal activity against GERDI found ([3]; a.i. g/ha: I.1 62.5, B.67 125, 20 days after treatment): 40%
herbicidal activity against GERDI found ([3]; application rate a.i.: I.1 31.25 g/ha, B.100 (isoxaflutole) 12.5 g/ha, alone or as mixture (composition 1.100)): 60
herbicidal activity against GERDI found ([3]; application rate a.i.: I.1 31.25 g/ha, B.40 (imazethapyr) 7.5 g/ha, alone or as mixture (composition 1.40)): 30
herbicidal activity against GERDI found ([3]; application rate a.i.: I.1 62.5 g/ha, B.100 (isoxaflutole) 12.5 g/ha, alone or as mixture (composition 1.100)): 65
